Laboratory results: patent US20240368150A1 (Hoffmann-La Roche Inc., priority 2021, published 2024)
Like-named read-outs stand apart in the source and are kept apart here.

Experiments:
[1] = test system: primary human T-cells
[2] = test system: primary human T-cells; test: Proliferation assay after 5 days (CellTiter-Glo, CD3 stimulation; PBS counter screen); type: cell-based; conditions: Homo sapiens, T-cell, 120 h, CD3 stimulation; for Emax: 5 days, normalized to reference compound A1 as stimulator control = 100%, DMSO neutral control, read-out: Emax proliferation (% activation); for EC50: primary human T-cells, CellTiter-Glo after 5 days, EC50 of fitted sigmoidal curve, read-out: Tcell Proliferation CD3 EC50
Experimental: Compounds are then added (see next section) to medium only plates.
Cells are assessed for proliferation 5 days later by measuring […] using CellTiterGlo (Promega).
After 5 days, for detection of ATP which is directly proportional to the number of cells present per well, the CellTiter-Glo® 2.0 Reagent is used. After visual control for toxicity or precipitations of the tested compounds, the plates are equilibrated to room temperature for 45 minutes. CellTiter-Glo® 2.0 Reagent is equilibrated to room temperature as well. After equilibration, an equal amount of CellTiter-Glo reagent is added to the cells (80 μl/well) with an electronic multichannel pipette. Plates are placed on a rocking platform for 15 minutes at room temperature. After incubation, the bottom of the plates is sealed with backing tape. Luminescence is measured with PHERAstar FSX (interval time 0.5 sec, gain 3000, focal height 15 mm) and exported as CSV file for analysis in Genedata screener.
Compounds which activate unstimulated cells (see IL2 measurements) or compounds which negatively affected viability were flagged.

Row | Compound | EC50 [1] | Emax [2] | EC50 [2]
1 | CS(=O)(=O)N1CCC(n2nnc(-c3cc4c(cc3F)S(=O)(=O)C[C@H](N)C(=O)N4Cc3ccc(Cl)cc3)n2)CC1 [Example 17, (3R)-3-amino-5-[(4-chlorophenyl)methyl]-8-fluoro-7-[2-(1-methylsulfonyl-4-piperidyl)tetrazol-5-yl]-1,1-dioxo-2,3-dihydro-1λ^6,5-benzothiazepin-4-one] | 262 nM | 239% | 167 nM
2 | CS(=O)(=O)N1CCCC(n2nnc(-c3cc4c(cc3F)S(=O)(=O)C[C@H](N)C(=O)N4Cc3ccc(Cl)cc3)n2)C1 (stereo partly drawn) [Example 18, (3R)-3-amino-5-[(4-chlorophenyl)methyl]-8-fluoro-7-[2-(1-methylsulfonyl-3-piperidyl)tetrazol-5-yl]-1,1-dioxo-2,3-dihydro-1λ^6,5-benzothiazepin-4-one] | 910 nM | 136% | 296 nM
3 | CS(=O)(=O)N1CCC(n2nnc(-c3cc4c(cc3F)S(=O)(=O)C[C@H](N)C(=O)N4Cc3ccc(Cl)cc3)n2)C1 (stereo partly drawn) [Example 19, (3R)-3-amino-5-[(4-chlorophenyl)methyl]-8-fluoro-7-[2-(1-methylsulfonylpyrrolidin-3-yl)tetrazol-5-yl]-1,1-dioxo-2,3-dihydro-1λ^6,5-benzothiazepin-4-one] | 1170 nM | 58% | 1290 nM
4 | CN1CCCC(n2nnc(-c3cc4c(cc3F)S(=O)(=O)C[C@H](N)C(=O)N4Cc3ccc(Cl)cc3)n2)C1 (stereo partly drawn) [Example 20, (3R)-3-amino-5-[(4-chlorophenyl)methyl]-8-fluoro-7-[2-(1-methyl-3-piperidyl)tetrazol-5-yl]-1,1-dioxo-2,3-dihydro-1λ^6,5-benzothiazepin-4-one] | 846 nM | 111% | 567 nM
5 | CN1CC(n2nnc(-c3cc4c(cc3F)S(=O)(=O)C[C@H](N)C(=O)N4Cc3ccc(Cl)cc3)n2)CC(F)(F)C1 (stereo partly drawn) [Example 21, (3R)-3-amino-5-[(4-chlorophenyl)methyl]-7-[2-(5,5-difluoro-1-methyl-3-piperidyl)tetrazol-5-yl]-8-fluoro-1,1-dioxo-2,3-dihydro-1λ^6,5-benzothiazepin-4-one] | 666 nM | 127% | 293 nM
6 | CN1CC(n2nnc(-c3cc4c(cc3F)S(=O)(=O)C[C@H](N)C(=O)N4Cc3ccccc3)n2)CC(F)(F)C1 (stereo partly drawn) [Example 22, (3R)-3-amino-5-benzyl-7-[2-(5,5-difluoro-1-methyl-3-piperidyl)tetrazol-5-yl]-8-fluoro-1,1-dioxo-2,3-dihydro-1λ^6,5-benzothiazepin-4-one] | > 10000 nM | 74% | > 10000 nM
7 | CS(=O)(=O)N1CC(n2nnc(-c3cc4c(cc3F)S(=O)(=O)C[C@H](N)C(=O)N4Cc3ccc(Cl)cc3)n2)CC(F)(F)C1 (stereo partly drawn) [Example 23, (3R)-3-amino-5-[(4-chlorophenyl)methyl]-7-[2-(5,5-difluoro-1-methylsulfonyl-3-piperidyl)tetrazol-5-yl]-8-fluoro-1,1-dioxo-2,3-dihydro-1λ^6,5-benzothiazepin-4-one] | 3790 nM | 161% | 588 nM
8 | CC(=O)N1CC(n2nnc(-c3cc4c(cc3F)S(=O)(=O)C[C@H](N)C(=O)N4Cc3ccc(Cl)cc3)n2)CC(F)(F)C1 (stereo partly drawn) [Example 24, (3R)-7-[2-(1-acetyl-5,5-difluoro-3-piperidyl)tetrazol-5-yl]-3-amino-5-[(4-chlorophenyl)methyl]-8-fluoro-1,1-dioxo-2,3-dihydro-1λ^6,5-benzothiazepin-4-one] | 6620 nM | 95% | 2020 nM
9 | COC(=O)N1CC(n2nnc(-c3cc4c(cc3F)S(=O)(=O)C[C@H](N)C(=O)N4Cc3ccc(Cl)cc3)n2)CC(F)(F)C1 (stereo partly drawn) [Example 25, methyl 3,3-difluoro-5-[5-[(3R)-3-amino-5-[(4-chlorophenyl)methyl]-8-fluoro-1,1,4-trioxo-2,3-dihydro-1λ^6,5-benzothiazepin-7-yl]tetrazol-2-yl]piperidine-1-carboxylate] | 1320 nM | 132% | 249 nM
